According to patent US20100113465A1, “7-AZASPIRO[3.5]NONANE-7-CARBOXAMIDE COMPOUNDS” (Pfizer Inc., priority 2008, published 2010):

What was measured:
Male Sprague-Dawley Rats = assay: In vivo Complete Freund's Adjuvant (CFA) efficacy assay; parameters: species or system rat; key: (+) indicates the test compound was determined to be efficacious at 3 mpk, oral dosing; (−) indicates the test compound was determined to not be efficacious at 3 mpk, oral dosing; conditions: 3 mpk, oral dosing; inhibition of allodynia (PWT) four hours postdose vs vehicle, p<0.05
Procedure: For additional information on the CFA efficacy assay, see Jayamanne et al., Brit. J. Pharmacol. 2006, 147, 281-288. Experiments were performed on adult Male Sprague-Dawley Rats (200 g-250 g). Inflammation was induced in the left hindpaw of the rat by an intra-plantar injection of 150 uL Complete Freund's Adjuvant (CFA) (SIGMA F5881). The CFA injection immediately induces local inflammation, paw swelling, and pain that persists for at least two weeks post-injection. Baseline paw withdrawal threshold (PWT) was measured to determine the percent inhibition of allodynia using a set of Von Frey Hairs on day 4 post injection as illustrated by the Dixon Up and Down Method (W. J. Dixon, Ann. Rev. Pharmacol. Toxicol. 1980, 20:441-462). […] Test compound was administered at a concentration of 3 mg/kg (mpk) orally with the dosing vehicle 5% N,N′-Dimethylacetamide (SIGMA D137510) and 95% (40% 2-hydroxypropyl-beta-cyclodextrin in water) (SIGMA H107). Following Dose administration PWT threshold was evaluated again at four hours postdose. The Sprague-Dawley rats used in this assay were purchased from Harlan, 8520 Allison Pointe Blvd., Indianapolis, Ind., 46250, U.S.A. Sprague-Dawley rats are an outbred breed of albino rats first produced by the Sprague Dawley farms in Madison, Wis., U.S.A.
Percent Inhibition of Allodynia was determined by the formula: […]
ΔPWT measurements were averaged for each treatment group and statistical comparisons between groups were made using ANOVA and Dunnett's two-tailed test. […]

rat FAAH = molecular target: T1, rat FAAH (Rattus norvegicus, UniProt P97612); assay: FAAH assay, rat FAAH enzyme inhibition (kinact/Ki); format: biochemical; conditions: oleamide substrate 50 μM, 30° C., read-out: rFAAH kinact/Ki
T1 construct: made in house; host or cells: E. coli
T1 sequence (P97612 1-579): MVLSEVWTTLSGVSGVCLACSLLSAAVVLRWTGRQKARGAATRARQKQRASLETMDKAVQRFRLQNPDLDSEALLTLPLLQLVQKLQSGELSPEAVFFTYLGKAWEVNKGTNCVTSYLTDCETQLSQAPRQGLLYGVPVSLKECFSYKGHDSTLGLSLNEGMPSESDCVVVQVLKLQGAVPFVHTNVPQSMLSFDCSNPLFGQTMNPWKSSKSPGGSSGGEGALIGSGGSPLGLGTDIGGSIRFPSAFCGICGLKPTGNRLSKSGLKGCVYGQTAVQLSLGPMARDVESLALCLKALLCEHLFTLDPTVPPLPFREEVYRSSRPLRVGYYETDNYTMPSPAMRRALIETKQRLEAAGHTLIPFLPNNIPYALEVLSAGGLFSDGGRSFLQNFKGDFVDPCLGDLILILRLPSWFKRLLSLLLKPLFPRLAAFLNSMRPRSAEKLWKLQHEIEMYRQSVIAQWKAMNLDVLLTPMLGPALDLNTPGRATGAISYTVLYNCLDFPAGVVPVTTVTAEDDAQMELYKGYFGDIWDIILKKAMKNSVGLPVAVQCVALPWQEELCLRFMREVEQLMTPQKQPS
Procedure: (§1) The FAAH assay was carried out in 384-well clear polystyrene plates (Evergreen Scientific) in a total volume of 50 μl per well in a manner similar to that described by Mileni et al., Proc. Nat. Acad. Sci. 2008, 105, 12820-12824. All percents are by volume. Serial dilutions of compound were initially prepared in 100% DMSO, and then diluted two-fold into HPLC-grade H2O to give 50% DMSO. To each well, was placed the reaction mixture (40 μl) containing 1-4 nM FAAH, 50 mM NaPi, pH 7.4, 3 mM α-ketoglutarate, 0.15 mM NADH, 7.5 U/ml glutamate dehydrogenase, 2 mM ADP, 1 mM EDTA, and 0.1% Triton X-100 (The concentration shown for each component is the final concentration in the assay). To this mixture, was added 5 μl of a compound of Examples 1 to 56 at various concentrations in 50% DMSO (or 5 μl 50% DMSO for controls). This was immediately followed by the addition of 5 μl oleamide (500 μM) dissolved in 75% EtOH/25% DMSO and the reaction mixture was mixed for 1.5 min. The final concentrations of DMSO and EtOH in the assay were each 7.5%. The reactions were incubated at 30° C. and the absorbance at 340 nm was collected over a period of 90 min with readings taken in 30-second intervals using SpectraMax Plus^384 Microplate Spectrophotometer (Molecular Devices, Sunnyvale, Calif.). The human FAAH and rat FAAH used in the assay was prepared as described in the patent application WO 2006/067613 using wild-type E. coli cells transformed in St. Louis, Mo., U.S.A. The purity of the enzyme was greater than 98% based on an analysis by SDS-polyacrylamide gel electrophoresis followed by Coomassie Blue staining.
(§2) Reaction progress curves were corrected for the non-enzymatic oxidation of NADH by subtraction of absorbancies at each time point obtained from control reactions containing no FAAH enzyme. The loss of enzyme activity as a function of time is well-described by the following mathematical equation (1) for a mono-exponential decay: […]
(§3) where At represents the absorbance at time t, A0 represents the absorbance at time zero, and C represents a constant. Observed rates of enzyme inactivation (kobs) were determined from the non-linear reaction progress curves by fitting the corrected absorbancies to an equation for a mono-exponential decay using the third-party Microsoft Excel plug-in, XLfit (IDBS Limited). Secondary plots of kobs vs. inhibitor concentration were prepared from kobs values obtained from progress curves. Second-order rates for enzyme inactivation, expressed as kinact/Ki (M^−1s^−1), were calculated from the slopes from linear regression analysis of the secondary plot of kobs vs. inhibitor concentration as defined in following equation (2), where [I]<<Ki:
(§4) The concentration of substrate in the assay was equal to the Km for oleamide of 50 μM. Therefore, reported kinact/Ki values are obtained by multiplying resulting slopes by a factor of two (i.e. slope=kinact/(Ki*2)).

human FAAH = molecular target: T2, human FAAH (Homo sapiens, UniProt O00519); assay: FAAH assay, human FAAH enzyme inhibition (kinact/Ki); format: biochemical; conditions: oleamide substrate 50 μM, 30° C., read-out: hFAAH kinact/Ki
T2 construct: made in house; host or cells: E. coli
T2 sequence (O00519 1-579): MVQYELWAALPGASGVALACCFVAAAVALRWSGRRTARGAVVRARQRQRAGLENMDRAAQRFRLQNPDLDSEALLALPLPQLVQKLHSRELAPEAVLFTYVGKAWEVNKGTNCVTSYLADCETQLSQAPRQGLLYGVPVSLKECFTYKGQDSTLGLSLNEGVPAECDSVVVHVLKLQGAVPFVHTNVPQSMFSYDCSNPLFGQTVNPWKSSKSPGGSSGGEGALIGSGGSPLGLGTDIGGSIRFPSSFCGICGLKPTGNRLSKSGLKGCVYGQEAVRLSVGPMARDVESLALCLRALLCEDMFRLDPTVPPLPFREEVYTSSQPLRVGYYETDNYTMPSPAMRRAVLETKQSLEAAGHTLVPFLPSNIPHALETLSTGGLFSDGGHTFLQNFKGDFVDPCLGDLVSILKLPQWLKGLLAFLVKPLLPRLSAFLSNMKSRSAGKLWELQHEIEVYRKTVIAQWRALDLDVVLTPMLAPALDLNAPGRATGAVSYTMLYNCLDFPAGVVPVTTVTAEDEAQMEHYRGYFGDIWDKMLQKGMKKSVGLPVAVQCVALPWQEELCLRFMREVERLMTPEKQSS
Procedure: as §1, §2, §3, §4

Compound: Cc1noc(NC(=O)N2CCC3(CC2)CC(c2ccc(Cl)c(Cl)c2)C3)c1C [Example 20, 2-(3,4-dichlorophenyl)-N-(3,4-dimethylisoxazol-5-yl)-7-azaspiro[3.5]nonane-7-carboxamide]
- CFA Efficacy (Male Sprague-Dawley Rats): (+)
- kinact/KI (rat FAAH): 3470 M⁻¹ s⁻¹
- kinact/KI (human FAAH): 4550 M⁻¹ s⁻¹

Compound: Cc1noc(NC(=O)N2CCC3(CC2)CC(c2cc(Cl)ccc2F)C3)c1C [Example 21, 2-(5-chloro-2-fluorophenyl)-N-(3,4-dimethylisoxazol-5-yl)-7-azaspiro[3.5]nonane-7-carboxamide]
- CFA Efficacy (Male Sprague-Dawley Rats): (+)
- kinact/KI (rat FAAH): 1510 M⁻¹ s⁻¹
- kinact/KI (human FAAH): 2700 M⁻¹ s⁻¹

Compound: CCc1cccc(C2CC3(CCN(C(=O)Nc4onc(C)c4C)CC3)C2)c1 [Example 22, N-(3,4-dimethylisoxazol-5-yl)-2-(3-ethylphenyl)-7-azaspiro[3.5]nonane-7-carboxamide]
- CFA Efficacy (Male Sprague-Dawley Rats): (−)
- kinact/KI (rat FAAH): 1340 M⁻¹ s⁻¹
- kinact/KI (human FAAH): 5670 M⁻¹ s⁻¹

Compound: Cc1noc(NC(=O)N2CCC3(CC2)CC(F)(c2cccc(OC(F)(F)F)c2)C3)c1C [Example 23, N-(3,4-dimethylisoxazol-5-yl)-2-fluoro-2-[3-(trifluoromethoxy)phenyl]-7-azaspiro[3.5]nonane-7-carboxamide]
- CFA Efficacy (Male Sprague-Dawley Rats): (+)
- kinact/KI (rat FAAH): 1710 M⁻¹ s⁻¹
- kinact/KI (human FAAH): 2820 M⁻¹ s⁻¹

Compound: Cn1nnnc1NC(=O)N1CCC2(CC1)CC(c1cccc(C(F)(F)F)c1)C2 [Example 24, N-(1-methyl-1H-tetrazol-5-yl)-2-[3-(trifluoromethyl)phenyl]-7-azaspiro[3.5]nonane-7-carboxamide]
- CFA Efficacy (Male Sprague-Dawley Rats): (+)
- kinact/KI (rat FAAH): 5750 M⁻¹ s⁻¹
- kinact/KI (human FAAH): 12400 M⁻¹ s⁻¹

Compound: Cc1noc(NC(=O)N2CCC3(CC2)CC(c2cccc(OCCOc4ccc(Cl)cc4)c2)C3)c1C [Example 25, 2-{3-[2-(4-chlorophenoxy)ethoxy]phenyl}-N-(3,4-dimethylisoxazol-5-yl)-7-azaspiro[3.5]nonane-7-carboxamide]
- CFA Efficacy (Male Sprague-Dawley Rats): (+)
- kinact/KI (rat FAAH): 2340 M⁻¹ s⁻¹
- kinact/KI (human FAAH): 2860 M⁻¹ s⁻¹

Compound: Cc1noc(NC(=O)N2CCC3(CC2)CC(c2cccc(OCCOc4ccccc4)c2)C3)c1C [Example 26, N-(3,4-dimethylisoxazol-5-yl)-2-[3-(2-phenoxyethoxy)phenyl]-7-azaspiro[3.5]nonane-7-carboxamide]
- CFA Efficacy (Male Sprague-Dawley Rats): (+)
- kinact/KI (rat FAAH): 1700 M⁻¹ s⁻¹
- kinact/KI (human FAAH): 4480 M⁻¹ s⁻¹

Compound: Cc1noc(NC(=O)N2CCC3(CC2)CC(c2cccc(OCCOc4ccccc4Cl)c2)C3)c1C [Example 27, 2-{3-[2-(2-chlorophenoxy)ethoxy]phenyl}-N-(3,4-dimethylisoxazol-5-yl)-7-azaspiro[3.5]nonane-7-carboxamide]
- CFA Efficacy (Male Sprague-Dawley Rats): (+)
- kinact/KI (rat FAAH): 1810 M⁻¹ s⁻¹
- kinact/KI (human FAAH): 2940 M⁻¹ s⁻¹

Compound: Cc1noc(NC(=O)N2CCC3(CC2)CC(c2cccc4c2OC(F)(F)O4)C3)c1C [Example 28, 2-(2,2-difluoro-1,3-benzodioxol-4-yl)-N-(3,4-dimethylisoxazol-5-yl)-7-azaspiro[3.5]nonane-7-carboxamide]
- CFA Efficacy (Male Sprague-Dawley Rats): (+)
- kinact/KI (rat FAAH): 1060 M⁻¹ s⁻¹
- kinact/KI (human FAAH): 2220 M⁻¹ s⁻¹

Compound: Cc1noc(NC(=O)N2CCC3(CC2)CC(c2cccc(Cl)c2F)C3)c1C [Example 29, 2-(3-chloro-2-fluorophenyl)-N-(3,4-dimethylisoxazol-5-yl)-7-azaspiro[3.5]nonane-7-carboxamide]
- CFA Efficacy (Male Sprague-Dawley Rats): (+)
- kinact/KI (rat FAAH): 2470 M⁻¹ s⁻¹
- kinact/KI (human FAAH): 3840 M⁻¹ s⁻¹

Compound: Cc1noc(NC(=O)N2CCC3(CC2)CC(c2cccc(C(F)(F)F)c2F)C3)c1C [Example 30, N-(3,4-dimethylisoxazol-5-yl)-2-[2-fluoro-3-(trifluoromethyl)phenyl]-7-azaspiro[3.5]nonane-7-carboxamide]
- CFA Efficacy (Male Sprague-Dawley Rats): (+)
- kinact/KI (rat FAAH): 2340 M⁻¹ s⁻¹
- kinact/KI (human FAAH): 3240 M⁻¹ s⁻¹

Compound: Cc1noc(NC(=O)N2CCC3(CC2)CC(F)(c2cccc(Cl)c2)C3)c1C [Example 32, 2-(3-chlorophenyl)-N-(3,4-dimethylisoxazol-5-yl)-2-fluoro-7-azaspiro[3.5]nonane-7-carboxamide]
- CFA Efficacy (Male Sprague-Dawley Rats): (+)
- kinact/KI (rat FAAH): 1320 M⁻¹ s⁻¹
- kinact/KI (human FAAH): 2830 M⁻¹ s⁻¹

Compound: Cc1noc(NC(=O)N2CCC3(CC2)CC(c2noc(-c4ccc(C(F)(F)F)cc4)n2)C3)c1C [Example 33, N-(3,4-dimethylisoxazol-5-yl)-2-{5-[4-(trifluoromethyl)phenyl]-1,2,4-oxadiazol-3-yl}-7-azaspiro[3.5]nonane-7-carboxamide]
- CFA Efficacy (Male Sprague-Dawley Rats): (+)
- kinact/KI (rat FAAH): 636 M⁻¹ s⁻¹
- kinact/KI (human FAAH): 1600 M⁻¹ s⁻¹

Compound: CCc1noc(NC(=O)N2CCC3(CC2)CC(c2cccc(OC(F)(F)F)c2)C3)c1C [Example 34, N-(3-ethyl-4-methylisoxazol-5-yl)-2-[3-(trifluoromethoxy)phenyl]-7-azaspiro[3.5]nonane-7-carboxamide]
- CFA Efficacy (Male Sprague-Dawley Rats): (+)
- kinact/KI (rat FAAH): 1660 M⁻¹ s⁻¹
- kinact/KI (human FAAH): 1650 M⁻¹ s⁻¹

Compound: Cc1noc(NC(=O)N2CCC3(CC2)CC(c2csc(-c4cccc(C(F)(F)F)c4)n2)C3)c1C [Example 36, N-(3,4-dimethylisoxazol-5-yl)-2-{2-[3-(trifluoromethyl)phenyl]-1,3-thiazol-4-yl}-7-azaspiro[3.5]nonane-7-carboxamide]
- CFA Efficacy (Male Sprague-Dawley Rats): (+)
- kinact/KI (rat FAAH): 1160 M⁻¹ s⁻¹
- kinact/KI (human FAAH): 2030 M⁻¹ s⁻¹
